From patent US20230158105A1, “Compositions and uses of Oligo-chromopeptides and methods of making” (JDS Therapeutics, LLC, priority 2021, published 2023)
Marks after values point to notes of the source that are not given here.

How the values were obtained:
[1] = system: LPS-induced pyrexia in mice; experiment: LPS-induced pyrexia in mice: serum biochemistry, liver and lung antioxidant enzymes, pyrexia; type: in vivo, BALB/c mice; conditions: oral, 2 weeks before LPS, HED Se 200 μg, Zn 30 mg, O-CPs 300 mg, mean ± SD; for ALP / ALT / AST / BUN / Creatine / LDH / T Bilirubin: serum
Protocol: Six-week-old male BALB/c mice was purchased from the Firat University Experimental Animal Center. All mice were ad libitum access to standard rodent chow and water during the study. Mice were housed in cages throughout the study. The following conditions were maintained: temperature, 22±2° C.; relative humidity, 55±5%; and a 12-hours light: dark cycle. The care and treatment of the animals were in accordance with the guidelines established by the Use of Laboratory Animals and were approved by the Animal Care and Use Committee of Firat University. Two control groups were taken for studies. The normal control group was given PBS and the other control was given lipopolysaccharides (LPS) along with a vehicle, i.e., phosphate buffered saline. Forty-two mice were randomly divided into 6 treatment groups with 7 mice in each group as follows: Selenomethionine, zinc picolinate and O-CPs or vehicle were orally administered 2 weeks before LPS treatment. Control mice received 50 μL of PBS. Subsequently, rats in Groups 2 through 6 received LPS (0.04 mg/kg i.p.) 30 min after active treatment with Se, ZnPic, and O-CPs. Basal temperature readings for all treatments and LPS injections were done between 8.00 and 9.00 GMT to avoid temperature differences due to circadian rhythm. The change in rectal temperature in all rats were recorded 30 min after PBS or LPS injection and at subsequent 30 min intervals for 4 hours. After 6 hours of LPS treatment, the mice were euthanized and their blood, liver and lungs were collected for further analysis. Doses of selenomethionine, zinc picolinate and O-CPs were determined based on the Human Equivalent Dose (HED) for Drug Development according to Shin et al. (2010). Conversion of human doses to animal doses were based on body surface area. A conversion factor of 12.33 was used to convert human doses to mouse doses. The human equivalent dose was 200 μg of selenium (Se) from selenomethionine, 30 mg of zinc (Zn) from zinc picolinate and 300 mg of O-CPs. Selenomethionine dose: 200 μg/70 kg=2.86 μg/kg/day human*12.33=35.23 μg/kg/day per mouse; Zinc picolinate (20%) dose: 30 mg/70 kg=0.428 mg/kg/day human*12.33=5.28 elemental zinc mg/kg/day mouse=5.28*100/20=26.4 mg/kg/day per mouse; O-CPs dose: 300 mg/70 kg=4.29 mg/kg/day human*12.33=52.84 mg/kg/day per mouse. Serum levels of glucose, triglycerides, cholesterol, aspartate aminotransferase (AST), alanine aminotransferase (ALT), urea, and creatinine were analyzed with a portable automated chemistry analyzer (Samsung LABGEO PT10, Samsung Electronics Co., Suwon, Korea). Serum levels of MDA were analyzed by HPLC. Antioxidant enzymes (SOD, CAT, GSHPx) were measured using the relevant commercial kits according to the enzyme-linked immunosorbent assay (ELISA, Elx-800, Bio-Tek Instruments Inc, Vermont, USA) method. Serum, zinc and selenium levels in liver and lung were detected by atomic absorption spectroscopy (AAS). The samples size of the study was 42 mice (n=7; 6 groups) and analyzed with the help of G*Power package program (Version 3.1.9.2) with alpha error 0.05 and 85% power with effect size 0.65 calculated from previous studies. The data was analyzed using statistical analysis software (SPSS 17.0). In this study, conformity to the assumption of normality from the prerequisites of the parametric tests was performed using the “Shapiro-Wilk” test and the homogeneity of the variances were checked with the “Levene” test. Analysis of variance (ANOVA) test was performed to determine the differences between the groups and post-hoc Tukey test was used for multiple comparisons of the groups. Statistical significance was accepted as P<0.05.

[2] = system: corticosterone (CORT) induced aging rats; experiment: CORT-induced aging rats: body weight, serum and liver biochemistry, liver telomere length; type: in vivo, Wistar rats; conditions: oral gavage daily 21 days, O-CP30/O-CP300 = 30/300 mg HED, NR 300 mg HED, mean ± SD
Protocol: Wistar rats (n=7 in each group; 8 weeks old) were used and animals were reared at the temperature of (22±2° C.), humidity (55±5%) and a 12/12 hour light/dark cycle. Pellet food and water were provided ad libitum. The experiment was conducted under the protocol approved by Firat University. Two control groups were taken for studies. The normal control group was given phosphate-buffered saline (PBS) and the CORT control was given corticosterone (CORT). Doses of O-CPs and NR were determined based on the Human Equivalent Dose (HED) for Drug Development according to Shin et al. (2010). Conversion of human doses to animal doses was based on body surface area. A conversion factor of 6.17 was used to convert human doses to rat doses. The human equivalent dose was 30 mg and 300 mg for O-CPs and 300 mg for nicotinamide riboside. CORT (Sigma-Aldrich Co., St. Louis, Mo., USA) was suspended in saline with 0.1% Tween 80% and 0.2% DMSO. Rats in groups 2-7 were injected daily with CORT (40 mg/kg) subcutaneously for 21 consecutive days. All injections were performed in a volume of 2 ml/kg body weight, between 7:00 and 7:10 p.m. The rats were dosed with study product involving various dosages of O-CPs, NR and their combination by oral gavage, which was administered daily for 21 days. Serum levels of glucose, triglycerides, cholesterol, aspartate aminotransferase (AST), alanine aminotransferase (ALT), urea, and creatinine were analyzed with a portable automated chemistry analyzer (Samsung LABGEO PT10, Samsung Electronics Co., Suwon, Korea). Total serum CORT levels, and levels of nicotinamide adenine dinucleotide (NAD+) and NAD+ precursors such as nicotinamide (Nam), tryptophan (Trp), nicotinic acid (Na) and nicotinamide mononucleotide (NMN) and NADPH were measured […] using a commercial kit following the manufacturer's instructions by ELISA (Elx-800, Bio-Tek Instruments Inc, Vermont, USA). Telomere length in the liver was determined by qPCR. Telomerase activity was measured according to the telomerase repeat amplification protocol using a Trapeze kit (Chemicon/Millipore, Billerica, Mass.). The levels of glutathione (GSH) and reactive oxygen species (ROS) in the rat liver were determined using the corresponding commercial ELISA kits (Wako Pure Chemical Industries) according to the manufacturer's instructions. Serum levels of malondialdehyde (MDA) were analyzed by High Performance Liquid Chromatography (HPLC). Antioxidant enzymes [superoxide dismutase (SOD), catalase (CAT), glutathione peroxidase (GSHPx)] were measured using the relevant commercial kits according to the enzyme-linked immunosorbent assay (ELISA, Elx-800, Bio-Tek Instruments Inc, Vermont, USA) method. The samples size of the study was determined to be totally 49 rats (n=7; 7 groups) with the help of G*Power package program (Version 3.1.9.2) with alpha error 0.05 and 90% power with effect size 0.7 calculated from previous studies. The data was analyzed using statistical analysis software (SPSS 17.0). In this study, conformity to the assumption of normality from the prerequisites of the parametric tests was performed using the “Shapiro-Wilk” test and the homogeneity of the variances were checked with the “Levene” test. Analysis of variance (ANOVA) test was performed to determine the differences between the groups and post-hoc Tukey test was used for multiple comparisons of the groups. Statistical significance was accepted as P<0.05.

## zinc picolinate [Zn]
[1]
  Liver, CAT: 43.06 ± 3.24^c U/mg
  Liver, GSHPx: 36.86 ± 1.98^d U/mg
  Liver, MDA: 5.92 ± 0.35^b nmol/mL
  Liver, SOD: 75.94 ± 5.93^c U/mg
  Lung, CAT: 28.53 ± 1.70^c U/mg
  Lung, GSHPx: 28.08 ± 1.98^c U/mg
  Lung, MDA: 6.83 ± 0.30^b nmol/mL
  Lung, SOD: 50.36 ± 2.93^c U/mg
  ALP: 292.71 ± 15.34^ab IU/L
  ALT: 280.43 ± 8.85^b IU/L
  AST: 580.86 ± 32.61^b IU/L
  BUN: 35.57 ± 3.20^ab mg/dL
  Creatine: 0.59 ± 0.06^ab mg/dL
  LDH: 216.13 ± 11.39^b IU/L
  T Bilirubin: 0.97 ± 0.08^b mg/dL

## C[Se]CC[C@H](N)C(=O)O [Se, selenomethionine]
[1]
  Liver, CAT: 41.89 ± 4.03^c U/mg
  Liver, GSHPx: 44.79 ± 3.86^c U/mg
  Liver, MDA: 5.86 ± 0.26^b nmol/mL
  Liver, SOD: 95.16 ± 5.06^b U/mg
  Lung, CAT: 32.29 ± 1.86^b U/mg
  Lung, GSHPx: 33.86 ± 3.41^b U/mg
  Lung, MDA: 6.67 ± 0.49^b nmol/mL
  Lung, SOD: 59.32 ± 4.81^b U/mg
  ALP: 285.43 ± 10.33^b IU/L
  ALT: 261.57 ± 16.16^bc IU/L
  AST: 573.43 ± 59.23^b IU/L
  BUN: 34.36 ± 3.26^b mg/dL
  Creatine: 0.59 ± 0.08^ab mg/dL
  LDH: 192.11 ± 10.72^c IU/L
  T Bilirubin: 0.95 ± 0.08^b mg/dL

## NC(=O)c1ccc[n+]([C@@H]2O[C@H](CO)[C@@H](O)[C@H]2O)c1 [NR, nicotinamide riboside]
[2]; liver
  Liver GSH: 33.25 ± 2.07^bc U/mg protein
  Liver NADPH: 44.42 ± 2.31^c nmol/g
  Liver Nicotinamide (Nam): 1.60 ± 0.06^c μmol/g
  Liver Nicotinamide adenine dinucleotide NAD+: 0.59 ± 0.04^c μmol/g
  Liver Nicotinamide mono nucleotide (NMN): 0.30 ± 0.02^bc μmol/g
  Liver Nicotinic acid (Na): 1.63 ± 0.09^abc μmol/g
[2]
  CORT: 102.16 ± 8.68^a ng/ml
  Final Body Weight: 222.86 ± 23.11^b g
[2]; serum glucose
  GLU: 119.86 ± 7.10^ab mg/dl
[2]; serum
  ALT: 98.00 ± 5.55 U/L
  AST: 114.71 ± 10.92 U/L
  BUN: 22.90 ± 1.87 mg/dL
  CAT: 114.69 ± 4.82^d U/ml
  Creatine: 0.37 ± 0.08
  GSH-Px: 26.28 ± 1.98^d U/ml
  MDA: 1.74 ± 0.07^b nmol/ml
  SOD: 61.36 ± 4.5^e U/ml
